Reference: patent US9556199B2, “Thieno[3,2-d]pyrimidines derivatives for the treatment of viral infections” (Janssen Sciences Ireland UC, priority 2013, dated 2017)

Legend:
Type in all cases: cell-based
[1] = biological target: T1, human TLR8 (Homo sapiens, UniProt Q9NR97); experiment: TLR8 cellular NFκB-luc reporter assay in transiently transfected HEK293 cells; conditions: lowest effective concentration, 6 hours incubation
T1 construct: expressed in transfected cells; host or cells: HEK293
T1 sequence (Q9NR97 27-1041): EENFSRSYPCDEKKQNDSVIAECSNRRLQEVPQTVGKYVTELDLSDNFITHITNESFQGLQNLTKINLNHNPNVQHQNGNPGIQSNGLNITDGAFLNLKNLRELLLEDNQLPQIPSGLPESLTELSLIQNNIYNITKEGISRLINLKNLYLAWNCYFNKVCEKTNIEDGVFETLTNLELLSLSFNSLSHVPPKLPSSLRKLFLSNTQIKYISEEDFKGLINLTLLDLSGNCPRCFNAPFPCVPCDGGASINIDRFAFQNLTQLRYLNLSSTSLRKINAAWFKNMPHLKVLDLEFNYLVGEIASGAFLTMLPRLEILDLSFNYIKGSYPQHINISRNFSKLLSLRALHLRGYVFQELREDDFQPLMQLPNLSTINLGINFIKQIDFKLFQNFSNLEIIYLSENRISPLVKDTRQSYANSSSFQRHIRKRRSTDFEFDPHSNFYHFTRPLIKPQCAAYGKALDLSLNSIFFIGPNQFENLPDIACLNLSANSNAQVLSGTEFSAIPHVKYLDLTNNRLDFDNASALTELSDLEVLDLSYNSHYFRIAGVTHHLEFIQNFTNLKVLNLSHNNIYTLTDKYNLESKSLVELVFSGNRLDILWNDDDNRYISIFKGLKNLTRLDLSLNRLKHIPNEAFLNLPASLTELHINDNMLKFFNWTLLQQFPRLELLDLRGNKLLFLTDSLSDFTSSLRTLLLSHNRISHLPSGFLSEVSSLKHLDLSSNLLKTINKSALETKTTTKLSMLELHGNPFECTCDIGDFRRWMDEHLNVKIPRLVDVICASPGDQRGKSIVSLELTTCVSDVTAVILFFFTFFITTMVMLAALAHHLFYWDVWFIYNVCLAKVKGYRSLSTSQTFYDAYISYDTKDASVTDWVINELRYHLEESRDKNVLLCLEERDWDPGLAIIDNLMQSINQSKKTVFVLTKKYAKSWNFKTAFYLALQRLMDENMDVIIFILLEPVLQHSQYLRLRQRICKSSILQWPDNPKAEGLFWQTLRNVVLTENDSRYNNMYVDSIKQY
Method: (§1) The ability of compounds to activate human TLR7 and/or TLR8 was assessed in a cellular reporter assay using HEK293 cells transiently transfected with a TLR7 or TLR8 expression vector and NFκB-luc reporter construct.
(§2) Briefly, HEK293 cells were grown in culture medium (DMEM supplemented with 10% FCS and 2 mM Glutamine). For transfection of cells in 15 cm dishes, cells were detached with Trypsin-EDTA, transfected with a mix of CMV-TLR7 or TLR8 plasmid (1700 ng), NFκB-luc plasmid (850 ng) and a transfection reagent and incubated for 48 h at 37° C. in a humidified 5% CO2 atmosphere. Transfected cells were then washed in PBS, detached with Trypsin-EDTA and resuspended in medium to a density of 1.25×10^5 cells/mL. Forty microliters of cells were then dispensed into each well in 384-well plates, where 200 nL of compound in 100% DMSO was already present. Following 6 hours incubation at 37° C., 5% CO2, the luciferase activity was determined by adding 15 μL of Steady Lite Plus substrate (Perkin Elmer) to each well and readout performed on a ViewLux ultraHTS microplate imager (Perkin Elmer). Dose response curves were generated from measurements performed in quadruplicates. Lowest effective concentrations (LEC) values, defined as the concentration that induces an effect which is at least two fold above the standard deviation of the assay, were determined for each compound.

[2] = system: interferon-stimulated responsive elements (ISRE); experiment: Activation of ISRE promoter elements in HEK-ISREluc cells by conditioned media from compound-treated PBMC; conditions: lowest effective concentration applied to PBMCs, supernatant transferred to HEK-ISREluc cells, 24 hours, read-out: HEK-ISRE luc (LEC)
Method: The potential of compounds to induce IFN-I was also evaluated by measuring the activation of interferon-stimulated responsive elements (ISRE) by conditioned media from PBMC. The ISRE element of sequence GAAACTGAAACT (SEQ ID NO: 1) is highly responsive to the STAT1-STAT2-IRF9 transcription factor, activated upon binding of IFN-I to their receptor IFNAR (Clontech, PT3372-5W). The plasmid pISRE-Luc from Clontech (ref. 631913) contains 5 copies of this ISRE element, followed by the firefly luciferase ORF. A HEK293 cell line stably transfected with pISRE-Luc (HEK-ISREluc) was established to profile the conditioned PBMC cell culture media.
Briefly, PBMCs were prepared from buffy coats of at least two donors using a standard Ficoll centrifugation protocol. Isolated PBMCs were resuspended in RPMI medium supplemented with 10% human AB serum and 2×10^5 cells/well were dispensed into 384-well plates containing compounds (70 μL total volume). After overnight incubation, 10 μL of supernatant was transferred to 384-well plates containing 5×10^3 HEK-ISREIuc cells/well in 30 μL (plated the day before). Following 24 hours of incubation, activation of the ISRE elements was measured by assaying luciferase activity using 40 μL/well Steady Lite Plus substrate (Perkin Elmer) and measured with ViewLux ultraHTS microplate imager (Perkin Elmer). The stimulating activity of each compound on the HEK-ISREluc cells was reported as LEC value, defined as the compound concentration applied to the PBMCs resulting in a luciferase activity at least two fold above the standard deviation of the assay. The LEC in turn indicates the degree of ISRE activation on transfer of a defined amount of PBMC culture medium. Recombinant interferon α-2a (Roferon-A) was used as a standard control compound.

[3] = biological target: T2, human TLR7 (Homo sapiens, UniProt Q9NYK1); experiment: TLR7 cellular NFκB-luc reporter assay in transiently transfected HEK293 cells; conditions: lowest effective concentration, 6 hours incubation
T2 construct: expressed in transfected cells; host or cells: HEK293
T2 sequence (Q9NYK1 27-1049): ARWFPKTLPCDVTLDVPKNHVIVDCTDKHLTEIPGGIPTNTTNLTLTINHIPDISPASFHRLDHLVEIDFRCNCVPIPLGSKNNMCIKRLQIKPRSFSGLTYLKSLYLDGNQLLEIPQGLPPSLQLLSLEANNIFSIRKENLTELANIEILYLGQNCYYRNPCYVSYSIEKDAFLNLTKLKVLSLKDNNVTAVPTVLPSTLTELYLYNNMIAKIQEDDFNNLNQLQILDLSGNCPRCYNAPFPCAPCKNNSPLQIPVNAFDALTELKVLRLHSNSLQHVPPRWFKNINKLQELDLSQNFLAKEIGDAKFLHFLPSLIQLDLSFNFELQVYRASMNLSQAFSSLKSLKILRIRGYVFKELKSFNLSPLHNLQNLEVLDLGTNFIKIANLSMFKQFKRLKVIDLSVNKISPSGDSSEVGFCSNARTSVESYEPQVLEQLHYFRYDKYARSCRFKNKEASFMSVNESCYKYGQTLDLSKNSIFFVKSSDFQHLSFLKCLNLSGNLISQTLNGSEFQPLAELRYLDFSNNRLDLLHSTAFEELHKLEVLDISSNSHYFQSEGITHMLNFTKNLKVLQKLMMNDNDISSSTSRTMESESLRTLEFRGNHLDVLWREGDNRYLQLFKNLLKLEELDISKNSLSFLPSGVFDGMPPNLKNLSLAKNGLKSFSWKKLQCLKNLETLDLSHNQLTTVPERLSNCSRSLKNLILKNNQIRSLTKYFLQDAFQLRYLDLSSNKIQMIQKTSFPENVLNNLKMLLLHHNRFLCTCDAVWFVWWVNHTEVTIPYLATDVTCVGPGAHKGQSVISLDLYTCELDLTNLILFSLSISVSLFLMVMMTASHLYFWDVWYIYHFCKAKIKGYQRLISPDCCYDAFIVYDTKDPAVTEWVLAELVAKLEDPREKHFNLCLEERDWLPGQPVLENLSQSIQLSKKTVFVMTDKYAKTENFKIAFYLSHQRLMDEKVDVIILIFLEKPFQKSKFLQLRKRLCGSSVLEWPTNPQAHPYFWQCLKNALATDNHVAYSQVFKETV
Method: as §1, §2

SMILES	Human TLR 8 (LEC) [1] [µM]	minimal effective concentration [2] [µM]	Human TLR 7 (LEC) [3] [µM]
CCCCNc1nc(N)nc2cc(C)sc12 [Compound 1]	0.5	0.1	1.0
CCCCNc1nc(N)nc2c(C)csc12 [Compound 2]	1.0	0.6	2.2
CCCCNc1nc(N)nc2cc(C(C)(C)C)sc12 [Compound 3]	1.2	0.4	1.2
CCCC[C@@H](CO)Nc1nc(N)nc2ccsc12 [Compound 4]	0.03	0.04	0.5
CCC[C@@H](CO)Nc1nc(N)nc2ccsc12 [Compound 5]	0.2	0.4	2.7
CCCC[C@H](CO)Nc1nc(N)nc2ccsc12 [Compound 6]	0.5	0.6	>25
CCCCNc1nc(N)nc2ccsc12 [Compound 7]	0.7	0.3	1.1
CCCC[C@@H](CCO)Nc1nc(N)nc2ccsc12 [Compound 8]	0.7	0.3	1.2
CCCC(C)Nc1nc(N)nc2ccsc12 (stereo not drawn) [Compound 9]	2.5	3.8	3.3
CCC[C@H](Nc1nc(N)nc2ccsc12)C(=O)OC [Compound 10]	2.7	0.8	6.1
CCCCCNc1nc(N)nc2ccsc12 [Compound 11]	3.9	1.2	2.1
CCC[C@H](CO)Nc1nc(N)nc2ccsc12 [Compound 12]	7.2	21	>25
CCC[C@@H](CO)Nc1nc(N)nc2c(C)csc12 [Compound 13]	0.2	0.6	12
CCCCCNc1nc(N)nc2c(C)csc12 [Compound 14]	1.9	3.2	6.8
CCC[C@H](Nc1nc(N)nc2c(C)csc12)C(=O)OC [Compound 15]	3.5	2.6	>25
CCC[C@@H](CCO)Nc1nc(N)nc2c(C)csc12 [Compound 16]	1.6	0.7	5.2
CCCC[C@@H](CO)Nc1nc(N)nc2c(C)csc12 [Compound 17]	0.3	0.4	3.7
CCCC[C@H](CO)Nc1nc(N)nc2c(C)csc12 [Compound 18]	0.8	1.7	>25
CCCC[C@@H](CCO)Nc1nc(N)nc2c(C)csc12 [Compound 19]	1.6	0.6	3.9
CCCC(C)Nc1nc(N)nc2cc(C)sc12 (stereo not drawn) [Compound 20]	6.9	10.1	>25
CCCC[C@H](CO)Nc1nc(N)nc2cc(C)sc12 [Compound 21]	0.6		10.4
CCCC[C@@H](CO)Nc1nc(N)nc2cc(C)sc12 [Compound 22]	0.2		2.9
CCCC[C@@H](CO)Nc1nc(N)nc2cc(C(C)(C)C)sc12 [Compound 23]	2.6		2.7
